Two compounds from patent US11999683B2, “Lipocationic dendrimers and uses thereof” (priority 2015, dated 2024) can be followed below.

Molecules are shown by their SMILES. Some results are limits rather than exact numbers.

Data set [1] is described as follows: In vivo toxicity evaluation in transgenic mice bearing MYC-driven liver tumors. The settings on record: for survival after multiple injections of siCTR NPs: tumor-bearing mice, injected days 32, 36, 40, 44 at 3 mg siCTR/kg (75 mg dendrimer/kg). As to the method:
All experiments were approved by the Institutional Animal Care and Use Committees of The University of Texas Southwestern Medical Center and were consistent with local, state and federal regulations as applicable. Female C57BL/6 mice were purchased from Harlan Laboratories (Indianapolis, IN). Transgenic mice bearing MYC-driven liver tumors were generated by crossing the TRE-MYC strain with LAP-tTA strain. Mice bearing the LAP-tTA and TRE-MYC genotype were maintained on 1 mg/mL of dox, and MYC was induced by withdrawing dox. Power analysis was performed to anticipate required number of animals to achieve statistical significance.
(§1) Wild-type mice or transgenic mice bearing liver tumors were randomly divided into different groups. Mice received tail vein i.v. injections of dendrimer NPs containing siCTR. Their body weight was monitored daily. For transgenic mice bearing liver tumors, multiple tail vain injections were performed to simulate repeated dosing.
A well-established Tet-On MYC inducible transgenic liver cancer model ws chosen (FIG. 13A) (Nguyen et al., 2014). […] At the age of 32 days (p32), these sick transgenic mice bearing aggressive liver tumors were injected with 5A2-SC8 or 6A3-SC12 NPs at 3 mg siCTR/kg dosage (75 mg dendrimer/kg or 21 mg C12-200/kg). […] In contrast to the result in WT mice, injection of C12-200 LNPs to mice bearing aggressive tumors lost >20% weight after one day, despite receiving ˜3 times less lipid than 5A2-SC8 injected mice (FIG. 12D). […] In addition to being less toxic than benchmark compounds, 5A2-SC8 NPs are more efficacious because these dendrimers reduce clinical concern for dose limiting toxicity and enable a wider therapeutic window.

A short description of data set [2]: In vivo toxicity evaluation (body weight) in wild type mice. The settings on record: i.v., 4 mg siCTR/kg (100 mg dendrimer/kg or 28 mg C12-200/kg). As to the method: as §1
To identify degradable dendrimers with the required balance of low toxicity and high potency required for liver cancer treatment, the degradable dendrimers were chose to evaluate their in vivo toxicity. In parallel, we analyzed C12-200 lipidoid LNPs wee chose as the best example of a non-hydrolyzable system previously shown to be potent in mice and non-human primates (Love et al., 2010). Lipidoids, as a class, are benchmark materials at the forefront of clinical research (Kanasty et al., 2013; Love et al., 2010; Sahay et al., 2013). Non-immunogenic control siRNA was used to best evaluate the toxicity of the individual dendrimers themselves. Dendrimer NPs were formulated at a weight ratio of 25:1 (dendrimer:siCTR), higher than necessary to better probe toxicity. C12-200 LNPs were prepared using identical formulation parameters as previously reported (Love et al., 2010). Size and zeta potential of each NP in PBS buffer was characterized. […] Each formulated NP was injected i.v. into wild type mice at a 4 mg siCTR/kg dose (100 mg dendrimer/kg or 28 mg C12-200/kg). […]

The nature of data set [3]: Biodistribution of Cy5.5-labeled siRNA in liver tumor-bearing mice. In kind it is in vivo. The settings on record: Cy5.5-labeled siRNA 1 mg/kg i.v., 24 hours post-injection. Here is the method: Female C57BL/6 mice or transgenic mice bearing liver tumors received tail vein i.v. injections with dendrimer NPs containing Cy5.5-siRNA at 1 mg/kg of siRNA in 200 μL. At 24 h post injection, mice were euthanized and organs were removed. The biodistribution was assessed by imaging whole organs with an IVIS Lumina System (Caliper Life Sciences) with the Cy5.5 filter setting.
For confocal imaging, the tissue was cryo-sectioned ([…]) and fixed using 4% paraformaldehyde at room temperature for 10 min. The slides were washed three times with PBS and blocked for 30 min in PBS with 1% albumin. Sections were then incubated for 30 min with Alexa Fluor 488 Phalloidin (1:200 dilution, Life Technologies) in PBS with 1% albumin. Slides were washed three times with 0.1% Tween 20 and mounted using ProLong Gold Antifade (Life Technologies). Sections were imaged using an LSM 700 point scanning confocal microscope (Zeiss) equipped with a 25× objective.
Since 5A2-SC8 balances low in vivo toxicity and effectiveness for silencing the hepatocellular target FVII, first, whether 5A2-SC8 NPs could deliver siRNA into tumor cells was examined. At the age of 41 days (p41), the livers of these transgenic mice are full of tumors (FIG. 14A). On p40, mice were injected intravenously with 5A2-SC8 NPs with Cy5.5-labeled siRNA at a dosage of 1 mg siRNA/kg. […]

In a further data set the test system is Factor VII. As to the kind of experiment: In vivo Factor VII silencing in mice. The settings on record: 1 mg siFVII/kg. As to the method:
For in vivo delivery screening, female C57BL/6 mice received tail vein i.v. injections of PBS (negative control, n=3) or dendrimer NPs containing non-targeting siRNA (siCTR, negative control, n=3) or dendrimer NPs containing anti-Factor VII siRNA (siFVII, n=3) diluted in PBS (200 μL or less in total volume). After 48 h, body-weight gain/loss was measured and mice were anaesthetized by isofluorane inhalation for blood sample collection by retro-orbital eye bleed. Serum was isolated with serum separation tubes (Becton Dickinson) and Factor VII protein levels were analyzed by a chromogenic assay (Biophen FVII, Aniara Corporation). A standard curve was constructed using samples from PBS-injected mice and relative Factor VII expression was determined by comparing treated groups to an untreated PBS control.
Having identified dendrimers that can overcome intracellular barriers, next, the dendrimers that can overcome extracellular barriers to efficiently deliver siRNA in vivo were identified. […] Dendrimers were evaluated for their ability to silence Factor VII in hepatocytes because this blood clotting factor can be readily quantified from a small serum sample (Akinc et al., 2008; Semple et al., 2010). […] FVII activity was quantified 3 days post injection.

The mark [4] stands for this setting: tumor-bearing mice p32, 3 mg siCTR/kg (75 mg dendrimer/kg).

Turning to `CCCCCCCCSCC(C)C(=O)OCCOC(=O)CCN(CCNCCN(CCC(=O)OCCOC(=O)C(C)CSCCCCCCCC)CCC(=O)OCCOC(=O)C(C)CSCCCCCCCC)CCNCCN(CCC(=O)OCCOC(=O)C(C)CSCCCCCCCC)CCC(=O)OCCOC(=O)C(C)CSCCCCCCCC` (centres unmarked) [5A2-SC8], the “tolerance in tumor-bearing mice” value in data set [1] (LAP-tTA/TRE-MYC transgenic, mouse, in vivo) was “up to 75 mg/kg”. In addition, in data set [1] (tumor-bearing mice p32, 3 mg siCTR/kg (75 mg dendrimer/kg or 21 mg C12-200/kg), after one day), the body weight loss result is “about 5%”. The body weight recovery entry in data set [1] (setting [4]) is “quickly returned to their starting weight on the second day”. Further, in data set [1], the “survival after multiple injections of siCTR NPs” value was “well tolerated and not affect survival”. Further, in data set [2], the body weight change result is “quicker recovery and gained weight normally after the first day”. Further, the “siRNA accumulation in organs (fluorescence imaging)” value in data set [3] is “siRNA accumulation in the cancerous liver, with only minor accumulation in the spleen and kidneys”. Besides, the “in vivo FVII knockdown” value with Factor VII is over 95%.

As to `CCCCCCCCCCCCSCC(C)C(=O)OCCOC(=O)CCN(CCC(=O)OCCOC(=O)C(C)CSCCCCCCCCCCCC)CCN(CCN(CCC(=O)OCCOC(=O)C(C)CSCCCCCCCCCCCC)CCC(=O)OCCOC(=O)C(C)CSCCCCCCCCCCCC)CCN(CCC(=O)OCCOC(=O)C(C)CSCCCCCCCCCCCC)CCC(=O)OCCOC(=O)C(C)CSCCCCCCCCCCCC` (centres unmarked) [6A3-SC12], the body weight recovery result in data set [1] (setting [4]) is listed as “could not recover”. In data set [1] (tumor-bearing mice p32, 3 mg siCTR/kg (75 mg dendrimer/kg), by the third day), the body weight loss was found to be 10%. Further, the “survival after multiple injections of siCTR NPs” value in data set [1] was “died seven days earlier compared to mice that received no treatment”. The body weight change result in data set [2] was “quicker recovery and gained weight normally after the first day”.
